The text below walks through data of paper PMC6269977, “Chemistry and Antiviral Activity of Arrabidaea pulchra (Bignoniaceae)” (Molecules, 2013).

Values after ≈ are worked out from the molar mass of the structure shown.

Data set [1] concerns respiratory syncytial virus (RSV). Particulars: isolated from Markhamia lutea; cited from earlier work.
Data set [2] can be described thus: in vitro. Particulars: African green monkey.
Data set [3] deals with Human herpesvirus 1 (HSV-1). Put plainly: microbe, parasite or virus in culture. It is filed as cell-based. Particulars: for HSV-1 EC50 / EC50: viral titer TCID50/mL 2.5 × 10^6 in 48 h, NA = no activity in the assayed concentrations; for EC50: Human alphaherpesvirus 1.
Data set [4] has as its system Murine encephalomyocarditis virus (EMCV). It is filed as cell-based. Particulars: viral titer TCID50/mL 1.0 × 10^6 in 48 h; NA = no activity in the assayed concentrations.
Data set [5] deals with HSV-2. Particulars: cited from earlier work.
The test system of data set [6] is HSV-1. Particulars: cited from earlier work.
Data set [7] concerns Vaccinia virus Western Reserve (VACV-WR). It is filed as cell-based.
The nature of data set [8]: in vitro. Particulars: rhesus monkey.
In data set [9] the test system is Dengue virus 2 (DENV-2). The data set can be described thus: microbe, parasite or virus in culture. It counts as cell-based. Particulars: DENV2, viral titer TCID50/mL 1.0 × 10^4 in 72 h.

`C[C@@H]1O[C@@H](O[C@@H]2[C@@H](O)[C@H](OCCc3ccc(O)c(O)c3)O[C@H](CO)[C@H]2OC(=O)/C=C/c2ccc(O)c(O)c2)[C@H](O)[C@H](O)[C@H]1O` [AP 1, verbascoside]: the “RSV EC50” value in [1] is given as 0.80 µg/mL. Also, the CC50 in [2] was above 200 µg/mL; in [8], 12.9 ± 1.1 µg/mL (≈ 20.7 µM). Also, the “HSV-1 EC50” value is given as “no effect was observed” in data set [3] and 58.0 µg/mL in [6]. The “EMCV EC50” value in [4] is “not active”. Moreover, in [5], the “HSV-2 EC50” value is recorded as 8.9 µg/mL. In addition, the anti-herpes activity entry in data set [6] (previous report) is listed as “had not shown anti-herpes activity”. The “VACV-WR EC50” value in data set [7] is reported as “not active”. For the same compound, the concentration for a half-maximal effect (EC50) in data set [9] was determined as 3.4 ± 0.4 µg/mL (≈ 5.44 µM).
As to `C[C@H]1[C@H](C)CC[C@]2(C(=O)O)CC[C@]3(C)C(=CC[C@@H]4[C@@]5(C)CC[C@H](O)C(C)(C)[C@@H]5CC[C@]43C)[C@H]12` [AP 3, ursolic acid], the CC50 in [2] stood at 8.1 ± 0.9 µg/mL (≈ 17.7 µM); in [8], 9.9 ± 1.3 µg/mL (≈ 21.7 µM). The EC50 in [3] was determined as 6.2 ± 0.1 µg/mL (≈ 13.6 µM); in [9] it was 3.2 µg/mL (≈ 7.01 µM). The HSV-1 virus inhibition in data set [3] (at concentrations as low 2 μg/mL, Figure 4A) came out at 50%. Also, the “HSV-1 EC50” value in [3] was “low activity”. In addition, the “EMCV EC50” value in data set [4] is “not active”. For the same compound, the “VACV-WR EC50” value in data set [7] is given as “not active”.
`Nc1nc2c(ncn2COCCO)c(=O)[nH]1` [Acyclovir, reference compound] returned a concentration for a half-maximal effect (EC50) in data set [3] of 40 µg/mL (≈ 178 µM).

By EC50 is commonly meant the concentration needed to bring the measured effect to its halfway point.
